Here are results for 47 molecules from patent publication US20250042879A1, “HETEROCYCLIC SUBSTITUTED 1,3,4-THIADIAZOLE AND PYRIDAZINE COMPOUNDS AND METHODS OF USING THE SAME” (Rgenta Therapeutics, Inc., priority 2021, published 2025).

Counter-ions that a name gives are not always drawn.

The first test relates to HTT. As to the kind of experiment: Mini-gene reporter assay-HTT (firefly luciferase, exon inclusion). As to conditions: HTT Minigene, 5 μM; read-out: % Efficacy at 5 μM. The format is cell-based. An excerpt: Mini-gene reporter constructs for each target site were constructed by first PCR amplifying the region-of-interest including the sequence of the alternatively skipped, sequences of the immediate upstream and downstream introns, and sequences of the immediate upstream and downstream exons. Then the 3′end of the amplified sequence was ligated to a firefly luciferase reporter gene and cloned into the pcDNA3.1 vector backbone. The final reporter construct was transiently transfected into HEK293 cells using Lipofectamine 3000 transfection reagents. Compounds that can induce the inclusion of the skipped exon in the reporter construct would increase the reporter firefly luciferase activity.
Test compounds were diluted in duplicates and dispensed into an assay plate. Transient mini-gene reporter cell line stock was resuspended and dispensed into the assay plate. Assay plates were then centrifuged and incubated. A luciferase reagent (e.g. ONE-Glo firefly luciferase reagent from Promega®) was added to the assay plate and the luminescence (RLU) signals recorded. EC50 values were determined by curve fitting in Levenberg-Marquardt algorithm.
As for `Cc1cn2cc(-c3ccc(-c4ccc(C5CN(Cc6cc(C)n(C)n6)C5)nn4)c(O)c3)cc(F)c2n1` [Compound 96], the Emax at 5 µM is less than 25%.
Still for that read-out and setting: next, `COc1cc(-c2ccc(-c3ccc(C4CN(CC(C)CCC#N)C4)nn3)c(O)c2)cc2cn(C)nc12` (centres unmarked) [Compound 169]: more than 750%.
On the same count and under the same terms, to `CCc1ncc(CN2CC(c3ccc(-c4ccc(-c5cc(OC)c6nn(C)cc6c5)cc4O)nn3)C2)cn1` [Compound 175] belongs 25 to 75%.
`COc1cc(-c2ccc(-c3ccc(C4CN(C5CCOC(C)(C)C5)C4)nn3)c(O)c2)cc2cn(C)nc12` (centres unmarked) [Compound 146]: the Emax at 5 µM lay within 25 to 75%.
For `Cc1cn2cc(-c3ccc(-c4ccc(C5CN(CC6(C(F)F)CC6)C5)nn4)c(O)c3)cc(F)c2n1` [Compound 112], the Emax at 5 µM lay within 25 to 75%.
As to `COc1cc(-c2ccc(-c3ccc(C4CN(Cc5cncs5)C4)nn3)c(O)c2)cc2cn(C)nc12` [Compound 141], the Emax at 5 µM was 25 to 75%.
For `Cc1cn2cc(-c3ccc(-c4ccc(C5CN(Cc6cc[nH]c6)C5)nn4)c(O)c3)cc(F)c2n1` [Compound 98], the Emax at 5 µM is more than 750%.
As for `Cc1cn2cc(-c3ccc(-c4ccc(C5CN(Cc6cnn(C)c6)C5)nn4)c(O)c3)cc(F)c2n1` [Compound 71], the Emax at 5 µM was more than 750%.
`COc1cc(-c2ccc(-c3ccc(C4CN(CC(C)(C)C)C4)nn3)c(O)c2)cc2cn(C)nc12` [Compound 136]: the Emax at 5 µM was more than 750%.
Still for that read-out and setting: to `CCN1CCC(N2CC(c3ccc(-c4ccc(-c5cc(OC)c6nn(C)cc6c5)cc4O)nn3)C2)CC1` [Compound 132] belongs less than 25%; to `COc1cc(-c2ccc(-c3ccc(C4CN(C5CCCC5)C4)nn3)c(O)c2)cc2cn(C)nc12` [Compound 137], more than 750%.
The same measure, in the same setting: next, `COc1cc(-c2ccc(-c3ccc(C4CN(CC5(SC)CC5)C4)nn3)c(O)c2)cc2cn(C)nc12` [Compound 174]: 25 to 75%; `COc1cc(-c2ccc(-c3ccc(C4CN(Cc5cn(C(C)C)cn5)C4)nn3)c(O)c2)cc2cn(C)nc12` [Compound 191]: 25 to 75%.
As to `COc1cc(-c2ccc(-c3ccc(C4CN(C5CCCSCC5)C4)nn3)c(O)c2)cc2cn(C)nc12` (centres unmarked) [Compound 183], the Emax at 5 µM was more than 750%.
Consider `Cc1cn2cc(-c3ccc(-c4ccc(C5CN(Cc6conc6C)C5)nn4)c(O)c3)cc(F)c2n1` [Compound 114], for which the Emax at 5 µM is less than 25%.
With `Cc1cn2cc(-c3ccc(-c4ccc(C5CN(CC6(C)COC6)C5)nn4)c(O)c3)cc(F)c2n1` [Compound 110], the Emax at 5 µM lay within 25 to 75%.
Same read-out and setting: to `COc1cc(-c2ccc(-c3ccc(C4CN(Cc5ccn(C(C)C)n5)C4)nn3)c(O)c2)cc2cn(C)nc12` [Compound 189] belongs less than 25%.
The same measure, in the same setting: to `Cc1cn2cc(-c3ccc(-c4ccc(C5CN(Cc6cncnc6)C5)nn4)c(O)c3)cc(F)c2n1` [Compound 82] belongs 25 to 75%; to `Cc1cn2cc(-c3ccc(-c4ccc(C5CN(C6CC7(COC(C)C7)C6)C5)nn4)c(O)c3)cc(F)c2n1` (centres unmarked) [Compound 124], 25 to 75%.
For the molecule `Cc1cn2cc(-c3ccc(-c4ccc(C5CN(CC6(F)CC6)C5)nn4)c(O)c3)cc(F)c2n1` [Compound 108], the Emax at 5 µM is more than 750%.
On the same count and under the same terms, next, `COC1CC(N2CC(c3ccc(-c4ccc(-c5cc(F)c6nc(C)cn6c5)cc4O)nn3)C2)C1` (centres unmarked) [Compound 103]: 25 to 75%; `COc1cc(-c2ccc(-c3ccc(C4CN(C5CCN(C6CC6)CC5)C4)nn3)c(O)c2)cc2cn(C)nc12` [Compound 134]: less than 25%; `Cc1cn2cc(-c3ccc(-c4ccc(C5CN(C6CCOC7(CCC7)C6)C5)nn4)c(O)c3)cc(F)c2n1` (centres unmarked) [Compound 113]: 25 to 75%.
On the same count and under the same terms, to `COc1cc(-c2ccc(-c3ccc(C4CN(C(C)COC(C)C)C4)nn3)c(O)c2)cc2cn(C)nc12` (centres unmarked) [Compound 148] belongs 25 to 75%; to `Cc1cn2cc(-c3ccc(-c4ccc(C5CN(Cc6cc[nH]n6)C5)nn4)c(O)c3)cc(F)c2n1` [Compound 72], more than 750%.
Still for that read-out and setting: next, `COc1cc(-c2ccc(-c3ccc(C4CN(C5CC(C)OC5C)C4)nn3)c(O)c2)cc2cn(C)nc12` (centres unmarked) [Compound 177]: 25 to 75%; `COc1cc(-c2ccc(-c3ccc(C4CN(C5CCC(C#N)CC5)C4)nn3)c(O)c2)cc2cn(C)nc12` (centres unmarked) [Compound 164]: more than 750%; `Cc1cn2cc(-c3ccc(-c4ccc(C5CN(Cc6cnco6)C5)nn4)c(O)c3)cc(F)c2n1` [Compound 90]: 25 to 75%.
Take `COc1cc(-c2ccc(-c3ccc(C4CN(CC5CCC6CC6C5)C4)nn3)c(O)c2)cc2cn(C)nc12` (centres unmarked) [Compound 186]: the Emax at 5 µM is 25 to 75%.
Same read-out and setting: to `CCC(COC)N1CC(c2ccc(-c3ccc(-c4cc(F)c5nc(C)cn5c4)cc3O)nn2)C1` (centres unmarked) [Compound 92] belongs more than 750%.
As to `Cc1cn2cc(-c3ccc(-c4ccc(C5CN(CC6CCCOC6)C5)nn4)c(O)c3)cc(F)c2n1` (centres unmarked) [Compound 88], the Emax at 5 µM was in the range of 25 to 75%.

The test is the same for the next values; noted with them: Homo sapiens; HTT mini-gene firefly luciferase reporter transiently transfected into HEK293 cells.
For the molecule `Cc1cn2cc(-c3ccc(-c4ccc(C5CN(C)C5)nn4)c(O)c3)nc(C)c2n1` [Compound 20, 5-{2,8-dimethylimidazo[1,2-a]pyrazin-6-yl}-2-[6-(1-methylazetidin-3-yl)pyridazin-3-yl]phenol], the EC50 was 500 to 1000 nM.
Consider `CCN1CC(c2ccc(-c3ccc(-c4cc(C)n5nc(C)cc5c4)cc3O)nn2)C1` [Compound 41, 5-{2,7-dimethylpyrazolo[1,5-a]pyridin-5-yl}-2-[6-(1-ethylazetidin-3-yl)pyridazin-3-yl]phenol], for which the EC50 was not below 1000 nM.
For the molecule `Cc1cn2nc(-c3ccc(-c4ccc(C5CN(C6CCOCC6)C5)nn4)c(O)c3)ccc2n1` [Compound 63, 5-(2-methylimidazo[1,2-b]pyridazin-6-yl)-2-(6-(1-(tetrahydro-2H-pyran-4-yl)azetidin-3-yl)pyridazin-3-yl)phenol hydrochloride], the EC50 was 500 to 1000 nM.
On the same count and under the same terms, to `COc1cc(-c2ccc(-c3ccc(C4CN(C5CCOCC5)C4)nn3)c(O)c2)nc2cn(C)nc12` [Compound 65, 5-(7-methoxy-2-methyl-2H-pyrazolo[4,3-b]pyridin-5-yl)-2-(6-(1-(tetrahydro-2H-pyran-4-yl)azetidin-3-yl)pyridazin-3-yl)phenol hydrochloride] belongs not below 1000 nM; to `CCN1CC(c2ccc(-c3ccc(-c4ccc5nccn5n4)cc3O)nn2)C1` [Compound 47, 2-[6-(1-ethylazetidin-3-yl)pyridazin-3-yl]-5-{imidazo[1,2-b]pyridazin-6-yl}phenol], 500 to 1000 nM; to `Cc1cn2cc(-c3ccc(-c4ccc(C5CN(C6CCOCC6)C5)nn4)c(O)c3)cc(F)c2n1` [Compound 18, 5-{8-fluoro-2-methylimidazo[1,2-a]pyridin-6-yl}-2-{6-[1-(oxan-4-yl)azetidin-3-yl]pyridazin-3-yl}phenol], 500 to 1000 nM.
The same measure, in the same setting: next, `CCN1CC(c2ccc(-c3ccc(-c4cc(OC)c5nn(C)cc5n4)cc3O)nn2)C1` [Compound 66, 2-(6-(1-ethylazetidin-3-yl)pyridazin-3-yl)-5-(7-methoxy-2-methyl-2H-pyrazolo[4,3-b]pyridin-5-yl)phenol hydrochloride]: not below 1000 nM; `Cc1cn2cc(-c3cc(O)c(-c4ccc(C5CNC5)nn4)c(F)c3)cc(F)c2n1` [Compound 11, 2-[6-(azetidin-3-yl)pyridazin-3-yl]-3-fluoro-5-{8-fluoro-2-methylimidazo[1,2-a]pyridin-6-yl}phenol]: 500 to 1000 nM.
Molecule `CCN1CC(c2ccc(-c3ccc(-c4ccn5nc(C)cc5c4)cc3O)nn2)C1` [Compound 25, 2-[6-(1-ethylazetidin-3-yl)pyridazin-3-yl]-5-{2-methylpyrazolo[1,5-a]pyridin-5-yl}phenol] gave an EC50 not below 1000 nM.
Still for that read-out and setting: next, `CN1CC(c2ccc(-c3ccc(-c4ccc5nn(C)cc5c4)cc3O)nn2)C1` [Compound 19, 5-(2-methyl-2H-indazol-5-yl)-2-[6-(1-methylazetidin-3-yl)pyridazin-3-yl]phenol]: not below 1000 nM; `CCN1CC(c2ccc(-c3ccc(-c4cc(C)c5nc(C)cn5n4)cc3O)nn2)C1` [Compound 42, 5-{2,8-dimethylimidazo[1,2-b]pyridazin-6-yl}-2-[6-(1-ethylazetidin-3-yl)pyridazin-3-yl]phenol]: not below 1000 nM.
Regarding `CCc1cc(-c2ccc(-c3ccc(C4CN(C5CCOCC5)C4)nn3)c(O)c2)nc2cn(C)nc12` [Compound 59, 5-{7-ethyl-2-methyl-2H-pyrazolo[4,3-b]pyridin-5-yl}-2-{6-[1-(oxan-4-yl)azetidin-3-yl]pyridazin-3-yl}phenol], the EC50 is not below 1000 nM.
In turn, `CCN1CC(c2ccc(-c3ccc(-c4cc5cn(C)nc5cn4)cc3O)nn2)C1` [Compound 46, 2-[6-(1-ethylazetidin-3-yl)pyridazin-3-yl]-5-{2-methyl-2H-pyrazolo[3,4-c]pyridin-5-yl}phenol] gave an EC50 of 500 to 1000 nM.
As for `CCN1CC(c2ccc(-c3ccc(-c4cc(C)c5nn(C)cc5n4)cc3O)nn2)C1` [Compound 62, 5-{2,7-dimethyl-2H-pyrazolo[4,3-b]pyridin-5-yl}-2-[6-(1-ethylazetidin-3-yl)pyridazin-3-yl]phenol], the EC50 is 500 to 1000 nM.
Same read-out and setting: to `Cn1cc2cc(-c3ccc(-c4ccc(C5CN(C6CCOC6)C5)nn4)c(O)c3)ccc2n1` (centres unmarked) [Compound 45, 5-(2-methyl-2H-indazol-5-yl)-2-{6-[1-(oxolan-3-yl)azetidin-3-yl]pyridazin-3-yl}phenol] belongs 500 to 1000 nM; to `CCN1CC(c2ccc(-c3ccc(-c4cn5cc(C)nc5cn4)cc3O)nn2)C1` [Compound 43, 2-[6-(1-ethylazetidin-3-yl)pyridazin-3-yl]-5-{2-methylimidazo[1,2-a]pyrazin-6-yl}phenol], 500 to 1000 nM.
